According to patent US20240270758A1, “PYRIDINO-OR PYRIMIDO-CYCLIC COMPOUND, PREPARATION METHOD THEREFOR AND MEDICAL USE THEREOF” (Genfleet Therapeutics (Shanghai) Inc., priority 2021, published 2024):

Legend:
[1] = tested on: AGS cells (KRAS^G12D mutation); assay: Cell proliferation inhibition assay (3D, CellTiter-Glo), AGS; format: cell-based, human; conditions: Homo sapiens, AGS, 120 h, 3D cell model, 5 days
Summary of the method: (§1)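 3D spheroids of AsPC-1 (800 cells/well, RPMI-1640) or AGS (400 cells/well, F-12K), 10% FBS, seeded overnight, then exposed 5 days to 3.16-fold compound dilutions (0.1% DMSO final). CellTiter-Glo 3D luminescence gives inhibition relative to DMSO and medium blanks; IC50 from four-parameter fit.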

[2] = tested on: AsPC-1 cells (KRAS^G12D mutation); assay: Cell proliferation inhibition assay (3D, CellTiter-Glo), AsPC-1; format: cell-based, human; conditions: Homo sapiens, ASPC1, 120 h, 3D cell model, 5 days
Summary of the method: as §1

[3] = tested on: p-ERK in AGS cells (KRAS^G12D mutation); assay: Cell p-ERK detection assay; format: cell-based, human; conditions: Homo sapiens, AGS, 3 h, 3 h incubation, HTRF
Summary of the method: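 AGS cells (KRAS G12D, ~20,000/well in F12K+10% FBS) treated next day with compound at 3.16-fold dilutions, 0.1% DMSO final, for 3 h. Lysates assayed for ERK phospho-T202/Y204 by HTRF after 4 h; inhibition vs DMSO and blank, IC50 from four-parameter fit.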

[4] = Mice pharmacokinetic evaluation experiment; format: in vivo; conditions: male, ICR, mouse, mice plasma; for Vd / half-life: IV 1 mg/kg; for AUC / Cmax: PO 100 mg/kg
Excerpt: Purpose of the experiment: male ICR mice were used as test animals to determine the drug concentration in plasma at different time points after intravenous and intragastric administration of test compounds by LC/MS/MS method. The pharmacokinetic behavior of the test compound in mice was studied to evaluate its pharmacokinetic characteristics.
Experimental protocol: laboratory animals: twelve healthy adult male ICR mice, weighing about 30 g, were randomly divided into two groups, 6 mice in IV group and 6 mice in PO group, N=3/time point, with semi-continuous blood collection. Animals were purchased from Vital River Laboratory Animal Technology Co., Ltd.
Drug preparation: IV group: taking 10 mL sample solution as an example, weighing 2 mg sample, followed by adding 0.5 mL DMSO, […], then adding […] HP-β-CD, finally dilute to 10 mL with water, stirring and ultrasound to reach 0.2 mg/mL clear state. PO group: weighing an appropriate amount of samples and preparing them according to the solvent ratio of the IV group, and evenly reaching the state of 10 mg/mL after stirring and ultrasound. Administration: after fasting for one night, intravenous administration was performed in the IV group, with an administration volume of 5 mL/kg and a dose of 1 mg/kg: the PO group was administered intragastrically a dose volume of 10 mL/kg and a dose of 100 mg/kg.
Experimental operation: after the test compounds were administered to the male ICR mice in the intravenous injection group and the intragastric administration group, the blood 110 ul were collected at time points of 0.25, 0.5, 1, 2, 4, 7, and 24 h, and stored in a commercial anticoagulant tube pre-filled with K2EDTA. The plasma was separated by centrifugation for 15 min and stored at −70° C. Animals were fed 4 h after administration. The plasma levels of test compounds following intravenous and intragastric administration in mice were determined by LC/MS/MS method. The linear range of the method was 1-3000 ng/ml; Plasma samples were analyzed after treatment with acetonitrile precipitated protein.

| Structure (SMILES) | IC50 [1] | IC50 [2] | IC50 [3] | Vd [4] | half-life [4] | AUC [4] | Cmax [4] |
| --- | --- | --- | --- | --- | --- | --- | --- |
| C#Cc1c(F)ccc2cc(O)cc(-c3ncc4c(N5C[C@H]6CC[C@@H](C5)N6)nc(OCC56CC(=C)CN5CC(=C)C6)nc4c3F)c12 [Example Z194, 4-(4-((1R,5S)-3,8-diazabicyclo[3.2.1]octan-3-yl)-2-((2,6-dimethylenetetrahydro-1H-pyrrolizin-7a(5H)-yl)methoxy)-8-fluoropyrido[4,3-d]pyrimidin-7-yl)-5-ethynyl-6-fluoronaphthalen-2-ol] | 1.4 nM | 4.6 nM | 0.69 nM | 16.9 L/kg | 11.2 h | 2840 ng·h/mL | 560 ng/mL |
| C#Cc1c(F)ccc2cc(O)cc(-c3ncc4c(N5CC6CCC(C5)N6)nc(OC[C@@]56CCCN5C[C@H](F)C6)nc4c3F)c12 [MRTX1133, reference compound] | – | – | – | 14.1 L/kg | 5.15 h | 745 ng·h/mL | 279 ng/mL |
